Here are results for 3 molecules from US20140128364A1, “THERAPEUTIC USES OF TIGEMONAM AND CARUMONAM” (priority 2012, published 2014).

SMILES strings stand for the structures. Values after ≈ are worked out from the molar mass of the structure shown. Like-named read-outs stand apart in the source and are kept apart here.

In test [1] the test system is Escherichia coli strain ECM6704 (vector pUCP24 alone). Put plainly: microbe, parasite or virus in culture. The format is cell-based. The following applies: E. coli ECM6704, vector alone, cation-adjusted Mueller-Hinton broth, 18 h, 35° C. The procedure:
(§1) MICs were recorded after an eighteen-hour growth at 35° C. […] In Table 1, all genes were cloned into vector pUCP24 and introduced into Escherichia coli strain.

Test [2] concerns Klebsiella pneumoniae KP1008 (KPC-2). The settings on record: clinical strain KP1008, Klebsiella pneumoniae, 18 h, 35° C.
Test [3] concerns Enterobacter cloacae ECL1055 (KPC-3, TEM). Briefly: MIC, CLSI broth microdilution, clinical strain ECL1055. The following applies: clinical strain ECL1055, Enterobacter loacae, 18 h, 35° C. Type of test: cell-based.
The test system of test [4] is Escherichia coli strain ECM6701 expressing KPC-2 β-lactamase. Put plainly: microbe, parasite or virus in culture. The settings on record: 18 h. The procedure: as §1
Test [5] concerns Escherichia coli strain ECM6702 expressing KPC-3 β-lactamase. Briefly: microbe, parasite or virus in culture. The settings on record: 18 h. The procedure:
as §1

Test [6] has as its system Enterobacter cloacae ECL1026 (KPC-2, TEM-1). Briefly: microbe, parasite or virus in culture. Type of test: cell-based. The following applies: 18 h.
Test [7] deals with Citrobacter freundii CF1012 (KPC-2). The following applies: clinical strain CF1012, Citrobacter freundii, 18 h, 35° C.
Test [8] deals with Escherichia coli EC1007 (KPC-3). The following applies: clinical strain EC1007, Escherichia coli, 18 h, 35° C.
Test [9] concerns the target purified KPC-2 β-lactamase (Klebsiella pneumoniae, UniProt Q9F663). Put plainly: Kinetics of monobactam hydrolysis by purified KPC-2.
Method: The optical density was checked every 2 minutes for 2 hours. […] Vmax and Km values were calculated using “Prizm” software (“GraphPad”). Kcat values were calculated using the equation kcat=Vmax/[enzyme concentration].
For test [10], the system named is Enterobacter cloacae ECL1036 (KPC-3, TEM-1). Put plainly: microbe, parasite or virus in culture. Type of test: cell-based. The following applies: 18 h.
In test [11] the test system is Citrobacter freundii CF1012 (KPC-2). Put plainly: microbe, parasite or virus in culture. The settings on record: 18 h.
The test system of test [12] is Escherichia coli EC1007 (KPC-3). Briefly: microbe, parasite or virus in culture. The settings on record: 18 h.
Test [13] has as its system Klebsiella pneumoniae KP1008 (KPC-2). Briefly: microbe, parasite or virus in culture. The settings on record: 18 h.
Setting [14] is: Escherichia coli, read-out: MIC.

Sequence of purified KPC-2 β-lactamase (Q9F663 25-293 limits assumed): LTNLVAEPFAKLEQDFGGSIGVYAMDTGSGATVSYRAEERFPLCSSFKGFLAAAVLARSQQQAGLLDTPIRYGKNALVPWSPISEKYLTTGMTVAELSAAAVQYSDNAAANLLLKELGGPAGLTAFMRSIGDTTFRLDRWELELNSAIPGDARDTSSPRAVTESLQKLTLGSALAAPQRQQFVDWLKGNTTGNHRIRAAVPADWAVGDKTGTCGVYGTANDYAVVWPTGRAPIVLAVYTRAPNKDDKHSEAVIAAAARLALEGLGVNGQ

Turning to `C[C@H]1[C@H](NC(=O)/C(=N\OC(C)(C)C(=O)O)c2csc(N)n2)C(=O)N1S(=O)(=O)O` [Aztreonam, aztreonam], the MIC in test [1] (setting [14]) was ≤ 0.125 µg/mL.

By Km is commonly meant the concentration of substrate that gives half-maximal velocity. What is called kcat is the number of substrate molecules converted per active site and unit of time at saturation. Take `CC1(C)[C@H](NC(=O)/C(=N\OCC(=O)O)c2csc(N)n2)C(=O)N1OS(=O)(=O)O` [Tigemonam, tigemonam]: the MIC result in test [1] is “<=0.125 μg/ml”; in test [2], 1 µg/mL (≈ 2.29 µM); in test [3], 8 µg/mL (≈ 18.3 µM); in test [4] (E. coli ECM6701, KPC-2, cation-adjusted Mueller-Hinton broth, 35° C.) it was 0.25 µg/mL (≈ 0.572 µM); in [5] (E. coli ECM6702, KPC-3, cation-adjusted Mueller-Hinton broth, 35° C.) it was 0.5 µg/mL (≈ 1.14 µM); in [6] (clinical strain ECL1026, Enterobacter cloacae, KPC-2, TEM-1, 35° C.), 4 µg/mL (≈ 9.14 µM). Also, the MIC in [7] is 8 µg/mL (≈ 18.3 µM); in [8] it was 1 µg/mL (≈ 2.29 µM); in test [10] (clinical strain ECL1036, Enterobacter Vcloacae, KPC-3, TEM-1, 35° C.), 8 µg/mL (≈ 18.3 µM). The Km in test [9] (50 mM sodium phosphate pH 7.0, 0.1 mg/ml BSA, 37° C., OD 318 nm) was 678 µM. Besides, in test [9] (kcat=Vmax/[enzyme concentration]), the kcat was 0.233 s⁻¹.

Regarding `NC(=O)OC[C@@H]1[C@H](NC(=O)/C(=N\OCC(=O)O)c2csc(N)n2)C(=O)N1S(=O)(=O)O` [Carumonam, carumonam], the MIC in [1] (setting [14]) is ≤ 0.125 µg/mL; in test [3] (Enterobacter cloacae, read-out: MIC) it was 4 µg/mL (≈ 8.58 µM); in test [11] it was 2 µg/mL (≈ 4.29 µM); in [12], 1 µg/mL (≈ 2.14 µM); in test [4] (Escherichia coli) it was 0.25 µg/mL (≈ 0.536 µM); in test [5] (Escherichia coli), 0.25 µg/mL (≈ 0.536 µM). Also, the values for the MIC in test [13], in test [6] (Enterobacter cloacae) and in [10] (Enterobacter cloacae) were 0.5 µg/mL (≈ 1.07 µM), 2 µg/mL (≈ 4.29 µM) and 2 µg/mL (≈ 4.29 µM), respectively.
